Measurements reported in US20220323406A1, “METHODS AND COMPOSITIONS FOR DIFFERENTIATING STEM CELLS” (Massachusetts Institute of Technology, priority 2019, published 2022).
Structures can show the parent of a compound that is named as a salt.

Legend:
[1] = tested on: ENR+CD organoids (ISC to Paneth cell differentiation); assay: Primary screen: basal (non-stimulated) lysozyme secretion LYZ.NS, 2.5-D 384-well ENR+CD organoid differentiation; type: cell-based, mouse
Description: (§1) High-throughput screening.

ENR+CD organoids = assay: Primary screen: ATP (CellTiter-Glo 3D, CTG) cell number/viability, 2.5-D 384-well ENR+CD organoids; details: primary screen; for Z.CTG: standard z score;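 for all read-outs here: compounds given at plating and again on day 3 over a 6-day differentiation from ENR+CV stem-cell-enriched precursors, ATP measured on day 6, plate median as control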
[2] = tested on: ENR+CD organoids (ISC to Paneth cell differentiation); assay: Primary screen: CCh-stimulated lysozyme secretion LYZ.S, 2.5-D 384-well ENR+CD organoid differentiation; type: cell-based, mouse; details: primary screen
Description: as §1

[3] = primary screen, dose 0.08 uM, standard z score
[4] = primary screen, dose 0.40 uM, standard z score
[5] = primary screen, dose 2.00 uM, standard z score
[6] = primary screen, dose 10.00 uM, standard z score
[7] = primary screen; dose 0.08 uM; FC vs plate median
[8] = primary screen; dose 0.40 uM; FC vs plate median
[9] = primary screen; dose 2.00 uM; FC vs plate median
[10] = primary screen; dose 10.00 uM; FC vs plate median
[11] = dose 0.08 uM, FC vs plate median
[12] = dose 0.40 uM, FC vs plate median
[13] = dose 2.00 uM, FC vs plate median
[14] = dose 10.00 uM, FC vs plate median
[15] = primary screen, dose 0.08 uM, FC relative to plate median
[16] = primary screen, dose 0.40 uM, FC relative to plate median
[17] = primary screen, dose 2.00 uM, FC relative to plate median
[18] = primary screen, dose 10.00 uM, FC relative to plate median
[19] = dose 0.08 uM, FC relative to plate median
[20] = dose 0.40 uM, FC relative to plate median
[21] = dose 2.00 uM, FC relative to plate median
[22] = dose 10.00 uM, FC relative to plate median

Compound | Dose.FC.LYZ.NS ([1]; primary screen, dose 0.08 uM) | Z.LYZ.NS (standard z score) ([1]; primary screen, dose 0.08 uM) | Dose.FC.LYZ.NS ([1]; primary screen, dose 0.40 uM) | Z.LYZ.NS (standard z score) ([1]; primary screen, dose 0.40 uM) | Dose.FC.LYZ.NS ([1]; primary screen, dose 2.00 uM) | Z.LYZ.NS (standard z score) ([1]; primary screen, dose 2.00 uM) | Dose.FC.LYZ.NS ([1]; primary screen, dose 10.00 uM) | Z.LYZ.NS (standard z score) ([1]; primary screen, dose 10.00 uM) | Dose.FC.CTG (ENR+CD organoids; dose 0.08 uM) | Dose.FC.CTG (ENR+CD organoids; dose 0.40 uM) | Dose.FC.CTG (ENR+CD organoids; dose 2.00 uM) | Dose.FC.CTG (ENR+CD organoids; dose 10.00 uM) | Dose.FC.LYZ.S ([2]; dose 0.08 uM) | Dose.FC.LYZ.S ([2]; dose 0.40 uM) | Dose.FC.LYZ.S ([2]; dose 2.00 uM) | Dose.FC.LYZ.S ([2]; dose 10.00 uM) | Z.LYZ.NS [1, 3] | Z.LYZ.NS [1, 4] | Z.LYZ.NS [1, 5] | Z.LYZ.NS [1, 6] | also measured
COCC[n+]1c2c(n(Cc3cnccn3)c1C)C(=O)c1ccccc1C2=O.[Br-] [YM155 (Sepantronium Bromide)] | 0.114 log2 fold change | 0.995 | −0.031 log2 fold change | −0.266 | −0.082 log2 fold change | −0.714 | −0.096 log2 fold change | −0.839 | 0.222 log2 fold change | −0.083 log2 fold change | −0.460 log2 fold change | −0.970 log2 fold change | 0.172 log2 fold change | −0.039 log2 fold change | −0.137 log2 fold change | −0.210 log2 fold change |  |  |  |  | Z.CTG (standard z score) (ENR+CD organoids; dose 0.08 uM): 0.531; Z.CTG (standard z score) (ENR+CD organoids; dose 0.40 uM): −0.198; Z.CTG (standard z score) (ENR+CD organoids; dose 2.00 uM): −1.100; Z.CTG (standard z score) (ENR+CD organoids; dose 10.00 uM): −2.316
O=C(NCCN1CCOCC1)c1ccc(Cl)cc1 [Moclobemide (Ro 111163)] |  |  |  |  |  |  |  |  |  |  |  |  |  |  |  |  | 0.654 | 1.055 | 0.011 | −0.243 | Dose.FC.LYZ.NS [1, 7]: 0.075 log2 fold change; Dose.FC.LYZ.NS [1, 8]: 0.121 log2 fold change; Dose.FC.LYZ.NS [1, 9]: 0.001 log2 fold change; Dose.FC.LYZ.NS [1, 10]: −0.028 log2 fold change; Z.CTG (ENR+CD organoids; dose 0.08 uM): 0.348; Z.CTG (ENR+CD organoids; dose 0.40 uM): 0.252; Z.CTG (ENR+CD organoids; dose 2.00 uM): 0.276; Z.CTG (ENR+CD organoids; dose 10.00 uM): 0.100; Dose.FC.CTG (ENR+CD organoids; [11]): 0.146 log2 fold change; Dose.FC.CTG (ENR+CD organoids; [12]): 0.106 log2 fold change; Dose.FC.CTG (ENR+CD organoids; [13]): 0.116 log2 fold change; Dose.FC.CTG (ENR+CD organoids; [14]): 0.042 log2 fold change; Dose.FC.LYZ.S [2, 11]: 0.147 log2 fold change; Dose.FC.LYZ.S [2, 12]: 0.094 log2 fold change; Dose.FC.LYZ.S [2, 13]: 0.012 log2 fold change; Dose.FC.LYZ.S [2, 14]: 0.019 log2 fold change
C[C@@H](c1ncncc1F)[C@](O)(Cn1cncn1)c1ccc(F)cc1F [Voriconazole] | 0.252 log2 fold change | 2.192 | 0.193 log2 fold change | 1.682 | 0.067 log2 fold change | 0.588 | 0.018 log2 fold change | 0.153 | 0.258 log2 fold change | 0.306 log2 fold change | 0.285 log2 fold change | 0.328 log2 fold change | 0.180 log2 fold change | 0.120 log2 fold change | 0.097 log2 fold change | 0.048 log2 fold change |  |  |  |  | 
O=C(NNc1nc2cc(F)ccc2n2cccc12)c1cnccn1 [SC144] |  |  |  |  |  |  |  |  |  |  |  |  |  |  |  |  | 0.582 | −0.112 | −0.220 | −1.355 | Dose.FC.LYZ.NS [1, 15]: 0.067 log2 fold change; Dose.FC.LYZ.NS [1, 16]: −0.013 log2 fold change; Dose.FC.LYZ.NS [1, 17]: −0.025 log2 fold change; Dose.FC.LYZ.NS [1, 18]: −0.156 log2 fold change; Dose.FC.CTG (ENR+CD organoids; [19]): 0.160 log2 fold change; Z.CTG (ENR+CD organoids; dose 0.08 uM): 0.381; Dose.FC.CTG (ENR+CD organoids; [20]): 0.129 log2 fold change; Z.CTG (ENR+CD organoids; dose 0.40 uM): 0.309; Dose.FC.CTG (ENR+CD organoids; [21]): −0.257 log2 fold change; Z.CTG (ENR+CD organoids; dose 2.00 uM): −0.613; Dose.FC.CTG (ENR+CD organoids; [22]): −0.885 log2 fold change; Z.CTG (ENR+CD organoids; dose 10.00 uM): −2.113; Dose.FC.LYZ.S [2, 19]: 0.098 log2 fold change; Dose.FC.LYZ.S [2, 20]: 0.014 log2 fold change; Dose.FC.LYZ.S [2, 21]: −0.131 log2 fold change; Dose.FC.LYZ.S [2, 22]: −0.211 log2 fold change
O=C(Nc1ccccc1-c1cn2c(CN3CCNCC3)csc2n1)c1cnc2ccccc2n1 [SRT1720] |  |  |  |  |  |  |  |  |  |  |  |  |  |  |  |  | 1.495 | 0.972 | 0.613 | −0.906 | Dose.FC.LYZ.NS [1, 15]: 0.172 log2 fold change; Dose.FC.LYZ.NS [1, 16]: 0.112 log2 fold change; Dose.FC.LYZ.NS [1, 17]: 0.070 log2 fold change; Dose.FC.LYZ.NS [1, 18]: −0.104 log2 fold change; Dose.FC.CTG (ENR+CD organoids; [19]): 0.529 log2 fold change; Z.CTG (ENR+CD organoids; dose 0.08 uM): 1.264; Dose.FC.CTG (ENR+CD organoids; [20]): 0.394 log2 fold change; Z.CTG (ENR+CD organoids; dose 0.40 uM): 0.940; Dose.FC.CTG (ENR+CD organoids; [21]): 0.339 log2 fold change; Z.CTG (ENR+CD organoids; dose 2.00 uM): 0.810; Dose.FC.CTG (ENR+CD organoids; [22]): −1.016 log2 fold change; Z.CTG (ENR+CD organoids; dose 10.00 uM): −2.427; Dose.FC.LYZ.S [2, 19]: 0.190 log2 fold change; Dose.FC.LYZ.S [2, 20]: 0.099 log2 fold change; Dose.FC.LYZ.S [2, 21]: 0.051 log2 fold change; Dose.FC.LYZ.S [2, 22]: −0.193 log2 fold change
COc1cc2ncnc(Nc3ccc(Cl)cc3F)c2cc1OC [ZM 306416] | 0.105 log2 fold change | 0.912 | −0.223 log2 fold change | −1.942 | −0.291 log2 fold change | −2.531 | −0.275 log2 fold change | −2.395 | −0.080 log2 fold change | −0.483 log2 fold change | −1.312 log2 fold change | −1.490 log2 fold change | 0.006 log2 fold change | −0.288 log2 fold change | −0.403 log2 fold change | −0.431 log2 fold change |  |  |  |  | Z.CTG (standard z score) (ENR+CD organoids; dose 0.08 uM): −0.190; Z.CTG (standard z score) (ENR+CD organoids; dose 0.40 uM): −1.155; Z.CTG (standard z score) (ENR+CD organoids; dose 2.00 uM): −3.135; Z.CTG (standard z score) (ENR+CD organoids; dose 10.00 uM): −3.559
O=C(O)/C=C/c1ccc(Cn2ccnc2)cc1 [Ozagrel HCl] |  |  |  |  |  |  |  |  |  |  |  |  |  |  |  |  | 1.756 | 0.000 | 0.308 | −0.061 | Dose.FC.LYZ.NS [1, 7]: 0.202 log2 fold change; Dose.FC.LYZ.NS [1, 8]: 0.000 log2 fold change; Dose.FC.LYZ.NS [1, 9]: 0.035 log2 fold change; Dose.FC.LYZ.NS [1, 10]: −0.007 log2 fold change; Dose.FC.CTG (ENR+CD organoids; [11]): 0.049 log2 fold change; Dose.FC.CTG (ENR+CD organoids; [12]): 0.133 log2 fold change; Dose.FC.CTG (ENR+CD organoids; [13]): 0.183 log2 fold change; Dose.FC.CTG (ENR+CD organoids; [14]): 0.229 log2 fold change; Dose.FC.LYZ.S [2, 11]: 0.119 log2 fold change; Dose.FC.LYZ.S [2, 12]: 0.073 log2 fold change; Dose.FC.LYZ.S [2, 13]: 0.135 log2 fold change; Dose.FC.LYZ.S [2, 14]: 0.061 log2 fold change
CC(C)n1c(/C=C/C(O)CC(O)CC(=O)O)c(-c2ccc(F)cc2)c2ccccc21 (stereo not shown) [Fluvastatin Sodium] | 0.112 log2 fold change |  | −0.146 log2 fold change |  | −0.203 log2 fold change |  | −0.159 log2 fold change |  | −0.161 log2 fold change | −0.482 log2 fold change | −1.111 log2 fold change | −1.761 log2 fold change | 0.026 log2 fold change | −0.177 log2 fold change | −0.293 log2 fold change | −0.267 log2 fold change |  |  |  |  | Z.LYZ.NS ([1]; primary screen, standard z score, dose 0.08 uM): 0.979; Z.LYZ.NS ([1]; primary screen, standard z score, dose 0.40 uM): −1.275; Z.LYZ.NS ([1]; primary screen, standard z score, dose 2.00 uM): −1.764; Z.LYZ.NS ([1]; primary screen, standard z score, dose 10.00 uM): −1.388
